Assay results from patent US11285158B2, “Uses of pyrimidopyrimidinones as SIK inhibitors” (The General Hospital Corporation, priority 2017, dated 2022).
Entries after “also recorded” stand apart in the source; their conditions may differ. Each block holds one compound with its values, some of them ahead of it.

Assays:
[1] = test system: normal human melanocytes, UACC62 melanoma cells, and UACC257 melanoma cells; experiment: MITF and TRPM1 mRNA expression by qPCR; type: cell-based; conditions: for Mitf expression: UACC62 and UACC257 melanoma cells (FIG. 7); for TRPM1 mRNA levels (MITF gene target): delayed relative to MITF induction, 4 uM, over 24 hours; for MITF mRNA expression / Induction of the pigmentation pathway compared with HG 9-91-01: normal human melanocytes; for MITF mRNA expression: UACC62 and UACC257 cells, 3 hours of treatment, relative to RPL11; for Induction of the pigmentation pathway compared with HG 9-91-01: Mitf and TRPM1 mRNA (FIG. 4)
Protocol: Cell Culture. UACC257 and UACC62 cells were grown in RPM1+1% penicillin and streptomycin+5% fetal bovine serum. Normal human melanocytes were grown in TIVA, and starved 24 hours in HAM's F-12+1% penicillin and streptomycin before all molecular experiments.
(§1) qPCR. mRNA was extracted from cells using the RNeasy Mini Kit (Qiagen®). KAPA SYBR® FAST Universal One-Step qRT-PCR Kit (KAPA BIOSYSTEMS®) was used to prepare mRNA samples for qPCR and samples were analyzed using the 7500 Fast Real Time PCR System (Applied Biosystems®). The relative expression of each gene was calculated by 7500 Fast System Software program, which utilizes Ct normalized to mRNA levels of RPL11 to calculate relative expression. Results are reported relative to control cells.

[2] = test system: human breast skin explants; experiment: Human skin explants: darkening/pigmentation after topical SIK inhibitor; type: cell-based; conditions: for Results (skin darkening): Human Skin Explants; for Gross pigmentation of human skin explants / Melanin content, Fontana Masson staining: 37.5 mM; for Gross pigmentation of human skin explants: 8 days (1×/day); for Melanin content, Fontana Masson staining: 8 days, compared to control
Protocol: Image and Colorimeter analysis were conducted 24 hours after the last treatment.
Human pigmentation experiments. Full thickness human breast skin explants were cultured in petri dishes with a solid phase and liquid phase phenol red free DMEM medium with […], 5% fungizone (Gibco®), and 10% FBS. Passive application refers to simply applying the treatment to skin without further rubbing or manipulation. Mechanical application refers to application of agents to skin with further rubbing of treatment with 10 clockwise turns of a gloved cotton swab applicator. Skin was harvested, fixed, and processed for paraffin embedding. Sections were cut from paraffin blocks, and sections were stained utilizing hematoxylin and eosin (morphology) and Fontana-Masson (melanin).

SIKs = experiment: Kinase activity in vitro assay (biochemical IC50 against SIKs); parameters: species or system human; conditions: compared with HG 9-91-01 (FIG. 6)
Protocol: Kinase activity in vitro assay. The biochemical activities against SIK2 were measured by Caliper-based mobility shift assay (PerkinElmer®). […] Reactions were quenched by adding 20 mM EDTA (pH 8) after 1 hour, and percentage of substrate conversion was measured by LabChip EZ Reader II (PerkinElmer®). IC50's for SIK2 inhibition were calculated using SmartFit nonlinear regression in Genedata® Screener software suite (Genedata®).
(§2) All other in vitro kinase assay were conducted using the SelectScreen Kinase Profiling Service at Thermo Fisher Scientific® (Madison, Wis.). The protocols are available from Thermo Fisher Scientific® website.

B16 cells = experiment: In vitro MITF induction in B16 cells; type: cell-based, mouse; conditions: Mus musculus, Table 5
Protocol: as §1
Tables 2 to 5 below show the effects of exemplary […] compounds on skin darkening, including an in vitro test of MITF induction following the same protocol as described above in paragraph 333, wherein exemplary SIK inhibitor compounds were tested for their in vitro induction of MITF.
(§3) Table 5 below additionally provides characteristics of exemplary SIK inhibitor compounds, MITF induction in B16 cells, EC50, log P, and experimental conditions for skin darkening experiments in mice and humans.

mouse skin = experiment: Skin darkening experiments in mice (Table 5); type: in vivo; conditions: HG-9-91-01: 2 days, 25 mM, HG-11-136-01: 12 days, HG-11-143-01: 12 days, 25 mM (4 days) −130 mM (8 days)
Protocol: Mouse pigmentation experiments. […] Daily differences in darkening of the skin were measured by reflective colorimetry. Skin was harvested, fixed, and processed for paraffin embedding. Sections were cut from paraffin blocks, and sections were stained utilizing hematoxylin and eosin (morphology) and Fontana-Masson (melanin). Melanin dissolution was conducted utilizing NaOH lysis method (Wakamatsu and Ito 2002).
as §3

UACC257 melanoma cells = experiment: Cell pelleting experiment (gross pigmentation of cell pellets); type: cell-based, human; conditions: 4 uM, 3 days of treatment
Protocol: Cell pelleting experiments. 1×10^5 UACC257 cells were plated per well in a 6-well plate. […] After 3 days, cells were trypsinized with 0.25% trypsin, resuspended in RPMI media, and pelleted. Pellets were washed 1× with PBS and allowed to dry before imaging.

Tyr^c/c;K14—Scf mice = experiment: Mouse pigmentation experiment, albino control mice; type: in vivo
Protocol: (§4) Mice. C57BL/6J Mc1r^e/e mice were crossed with K14—Scf transgenic mice. C57BL/6J Tyr^c2j/c2j were crossed with K14—Scf transgenic mice. (Kunisada et al. 1998; D'Orazio et al. 2006).
(§5) Mouse pigmentation experiments. Animals were treated with vehicle control or 37.5 mM HG 9-9-01 until uniform gross darkening was visible as stated in figure legends. Daily differences in darkening of the skin were measured by reflective colorimetry. Skin was harvested, fixed, and processed for paraffin embedding. Sections were cut from paraffin blocks, and sections were stained utilizing hematoxylin and eosin (morphology) and Fontana-Masson (melanin). Melanin dissolution was conducted utilizing NaOH lysis method (Wakamatsu and Ito 2002).
(§6) Colorimeter Measurements: Differences in darkening of the skin were measured by reflective colorimetry (CIE L* white-black color axis) utilizing a CR-400 Colorimeter (Minolta®) calibrated by a calibration plate (C: Y 93.1, x 0.3133, y 0.3194) before each set of measurements.
(§7) To test this, a previously described mouse “redhair” model was utilized which carries the inactivating Mc1r^e/e mutant allele and a transgene, K14—SCF, in which Stem Cell Factor expression is driven by the Keratin-14 promoter allowing for epidermal homing of melanocytes (Kunisada et al. 1998; D'Orazio et al. 2006). Albino mice harboring a mutation in the tyrosinase gene were combined with the K14—Scf transgene (tyr^c/c;K14—Scf mice) and served as controls to evaluate whether the pigmentation afforded by topical SIK inhibitor was dependent upon the canonical tyrosinase-melanin pathway. […] Skin pigmentation remained in its pretreatment state over the next 30 days (FIG. 3A; 3B). […] These findings combined with the small molecule and lipophilic nature of the SIK inhibitors led us to investigate the use of SIK inhibitors for topical eumelanization of human skin.

Mc1r^e/e;K14—Scf mice = experiment: Mouse pigmentation experiment, redhair model; type: in vivo
Protocol: as §4, §5, §6, §7

FRK and SIKs = experiment: Enzymatic assays of KinomeScan top hits (in-house or SelectScreen); type: biochemical, human
Protocol: as §2
(§8) Since there are limitations to topical delivery of drugs into human skin epidermis, novel SIK inhibitors designed to enhance epidermal permeation by reducing the size and increasing the lipophilicity (c Log P) to develop second generation SIK inhibitors YKL 06-061 and YKL 06-062 were derived (FIG. 6) (Bos and Meinardi 2000; Hadgraft and Pugh 1998). […] To assess the kinome selectivity information of new analogs, YKL-06-061 was screened across a panel of 468 human kinases at a concentration of […] using the KinomeScan methodology (DiscoverX). […] As the KinomeScan assays measure binding, enzymatic assays for these targets were also performed either in-house or using the SelectScreen Kinase Profiling Service at Thermo Fisher Scientific (Madison, Wis.).

[3] = test system: panel of 468 human kinases; experiment: KinomeScan kinome profiling; type: binding
Protocol: Kinome Profiling. Kinome profiling was performed using KinomeScan ScanMAX at compound concentration of 1 μM. Protocols are available from DiscoverX®.
as §8

[4] = Table 2, passive topical application

- IC50 values for inhibition of SIKs (SIKs): comparable
Structure (SMILES): Cc1cccc(C)c1N1Cc2cnc(Nc3ccc(N4CCN(C)CC4)cc3)nc2N(C2CCCCC2)C1=O [YKL-06-062, 1-cyclohexyl-3-(2,6-dimethylphenyl)-7-(4-(4-methylpiperazin-1-yl)phenylamino)-3,4-dihydropyrimido[4,5-d]pyrimidin-2(1H)-one]
- Mitf expression [1]: induces Mitf expression
- TRPM1 mRNA levels (MITF gene target) [1]: increased
- MITF mRNA expression [1]: dose dependent increase
- Induction of the pigmentation pathway compared with HG 9-91-01 [1]: as efficacious in inducing the pigmentation pathway as HG 9-91-01
- Results (skin darkening) [2, 4]: Darkens
- Results (skin darkening) ([2]; Table 4): Darkens
- Gross pigmentation of human skin explants ([2]; passive topical application): induced significant pigmentation
- Melanin content, Fontana Masson staining ([2]; passive topical application): increased melanin content

- EC50 (B16 cells; readout not given, presumably mitf induction in B16 cells): 0.016 µM
Structure (SMILES): COc1ccc(N(C(=O)Nc2c(C)cccc2C)c2cc(Nc3ccc(N4CCN(C)CC4)cc3)ncn2)c(OC)c1 [HG-9-91-01]
- Darkening (Mouse) (mouse skin): Darkens

Structure (SMILES): COc1ccc(N2C(=O)N(c3c(C)cccc3C)Cc3cnc(Nc4ccc(N5CCN(C)CC5)cc4)nc32)c(OC)c1 [HG-11-136-01]
- maximal fold induction (B16 cells; B16 cells, read-out: Highest fold mitf induction in B16 cells): 6.1
- Darkening (Mouse) (mouse skin): Darkens

Structure (SMILES): COc1ccc(N(C(=O)Nc2c(C)cccc2C)c2cc(Nc3ccc(N4CCN(C)CC4)cc3)ncn2)c(OC)c1 [HG 9-91-01]
- Gross pigmentation of cell pellets (UACC257 melanoma cells): Gross pigmentation was observed
- Mitf expression [1]: induces Mitf expression
- TRPM1 mRNA levels (MITF gene target) [1]: increased
- MITF mRNA expression [1]: Dose-dependent increases
- Epidermis morphology, hematoxylin and eosin staining (Tyr^c/c;K14—Scf mice; after treatment): normal morphology
- Pigment induction, Fontana-Masson staining (Tyr^c/c;K14—Scf mice; albino mice): no pigment induction
- Visible change in skin pigmentation (Tyr^c/c;K14—Scf mice; albino mice, topical, daily, 37.5 mM): No visible change in skin pigmentation
- Change of skin colour during and after treatment (Tyr^c/c;K14—Scf mice; during treatment or 14 days after treatment was stopped): No change
- Fontana-Masson staining, difference between treatment groups (Mc1r^e/e;K14—Scf mice; 40 days after treatment, Mc1r^e/e;K14—Scf and Tyr^c/c;K14—Scf mice): no differences
- Skin morphology, hematoxylin and eosin stain (Mc1r^e/e;K14—Scf mice; 40 days after treatment, all mice): normal morphology
- Nuclear capping of melanosomes within epidermal keratinocytes (Mc1r^e/e;K14—Scf mice; Fontana-Masson stained skin sections): Nuclear capping of melanin-laden melanosomes was observed
- Time to reversal of darkening after treatment was stopped (Mc1r^e/e;K14—Scf mice; after 6 days of topical treatment): ≤ 10 days
- Skin morphology, hematoxylin and eosin staining (Mc1r^e/e;K14—Scf mice; after treatment): normal morphology
- Extractable eumelanin, NaOH lysis of skin samples (Mc1r^e/e;K14—Scf mice; compared to all other treatment groups): visible increase in extractable eumelanin
- Course of darkening (Mc1r^e/e;K14—Scf mice; topical application, 6 days of treatment): progressive and reversible; also recorded: progressive over 6 days of treatment
- Reflective colorimetry (CIE L* white-black color axis) (Mc1r^e/e;K14—Scf mice; topical, daily, 37.5 mM): significant darkening
- Gross skin darkening (Mc1r^e/e;K14—Scf mice; topical, daily, 37.5 mM, 30 uL, 6 days / 7 days (FIG. 2)): robust darkening
- Melanin production, Fontana-Masson staining (Mc1r^e/e;K14—Scf mice; treated skin areas): strong induction of melanin production

Structure (SMILES): COc1cc(N2CCN(C)CC2)ccc1Nc1ncc2c(n1)N(C1CCC1)C(=O)N(c1c(C)cccc1C)C2 [YKL-06-061, 1-cyclobutyl-3-(2,6-dimethylphenyl)-7-(2-methoxy-4-(4-methylpiperazin-1-yl)phenylamino)-3,4-dihydropyrimido[4,5-d]pyrimidin-2(1H)-one]
- Mitf expression [1]: induces Mitf expression
- TRPM1 mRNA levels (MITF gene target) [1]: increased
- MITF mRNA expression [1]: dose dependent increase
- Induction of the pigmentation pathway compared with HG 9-91-01 [1]: as efficacious in inducing the pigmentation pathway as HG 9-91-01
- Results (skin darkening) [2, 4]: Darkens
- Results (skin darkening) ([2]; Table 4): Darkens
- Gross pigmentation of human skin explants ([2]; passive topical application): induced significant pigmentation
- Melanin content, Fontana Masson staining ([2]; passive topical application): increased melanin content
- Kinase selectivity in enzymatic assays (FRK and SIKs): only inhibited one kinase (FRK) stronger than SIKs
- S(1) score ([3]; concentration of 1 pM): 0.02
- Number of kinases displaying tight binding (Ambit scores of less than or equal to 1) ([3]; concentration of 1 µM): 16
- IC50 values for inhibition of SIKs (SIKs): comparable
